Experiment [1] concerns the target T1, pSTAT3 (pY705-STAT3) (Homo sapiens, UniProt P40763).
T1 construct: host or cells: cryopreserved PBMC
The experiment in a line: MSD-pSTAT-PBMC Assay (pSTAT3, IL-6 stimulated). Format: cell-based. To be noted: PBMC, compound 3 hrs, then 10 ng/mL IL-6 for 10 min; MSD pY705-STAT3; read-out: pSTAT3. The essentials:
(§1)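 Phospho-STAT levels captured on anti-STAT3 or anti-STAT6 plates and detected with anti-pY705 or anti-pY641 antibodies (MSD read-out). Cryopreserved human PBMCs received compound for 3 h before a 10 min pulse of IL-6 (10 ng/mL, STAT3) or IL-4 (1 ng/mL, STAT6). IC50 fitted after unstimulated-background subtraction and DMSO normalization.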

Experiment [2] addresses T2, pSTAT6 (pY641-STAT6) (Homo sapiens, UniProt P42226).
T2 construct: host or cells: cryopreserved PBMC
T2 sequence (P42226 1-847): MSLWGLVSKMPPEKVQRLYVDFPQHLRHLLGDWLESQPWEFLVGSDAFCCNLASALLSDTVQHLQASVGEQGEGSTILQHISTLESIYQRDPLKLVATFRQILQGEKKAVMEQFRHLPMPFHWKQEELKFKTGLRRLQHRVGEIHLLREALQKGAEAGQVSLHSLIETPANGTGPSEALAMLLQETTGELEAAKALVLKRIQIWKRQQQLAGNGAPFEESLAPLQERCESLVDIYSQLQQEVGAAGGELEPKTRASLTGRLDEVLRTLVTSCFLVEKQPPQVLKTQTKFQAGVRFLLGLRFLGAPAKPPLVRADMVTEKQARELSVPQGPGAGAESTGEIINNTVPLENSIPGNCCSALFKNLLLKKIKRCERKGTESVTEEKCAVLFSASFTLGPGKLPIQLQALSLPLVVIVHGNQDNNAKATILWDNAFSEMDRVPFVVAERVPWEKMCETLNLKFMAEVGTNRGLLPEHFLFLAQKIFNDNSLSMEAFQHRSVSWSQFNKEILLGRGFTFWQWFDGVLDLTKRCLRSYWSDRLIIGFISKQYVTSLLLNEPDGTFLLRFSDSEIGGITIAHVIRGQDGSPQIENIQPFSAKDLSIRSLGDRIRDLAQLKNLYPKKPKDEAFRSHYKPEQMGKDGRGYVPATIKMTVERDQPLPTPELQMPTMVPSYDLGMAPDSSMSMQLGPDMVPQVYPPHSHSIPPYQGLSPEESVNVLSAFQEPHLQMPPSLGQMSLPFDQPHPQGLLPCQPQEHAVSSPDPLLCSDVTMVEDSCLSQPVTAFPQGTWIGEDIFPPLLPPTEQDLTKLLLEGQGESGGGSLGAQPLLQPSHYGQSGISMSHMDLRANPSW
Description: MSD-pSTAT-PBMC Assay (pSTAT6, IL-4 stimulated). To be noted: compound 3 hrs, then 1 ng/mL IL-4 for 10 min. Format: cell-based. The essentials:
as §1

T1 sequence (P40763 whole entry): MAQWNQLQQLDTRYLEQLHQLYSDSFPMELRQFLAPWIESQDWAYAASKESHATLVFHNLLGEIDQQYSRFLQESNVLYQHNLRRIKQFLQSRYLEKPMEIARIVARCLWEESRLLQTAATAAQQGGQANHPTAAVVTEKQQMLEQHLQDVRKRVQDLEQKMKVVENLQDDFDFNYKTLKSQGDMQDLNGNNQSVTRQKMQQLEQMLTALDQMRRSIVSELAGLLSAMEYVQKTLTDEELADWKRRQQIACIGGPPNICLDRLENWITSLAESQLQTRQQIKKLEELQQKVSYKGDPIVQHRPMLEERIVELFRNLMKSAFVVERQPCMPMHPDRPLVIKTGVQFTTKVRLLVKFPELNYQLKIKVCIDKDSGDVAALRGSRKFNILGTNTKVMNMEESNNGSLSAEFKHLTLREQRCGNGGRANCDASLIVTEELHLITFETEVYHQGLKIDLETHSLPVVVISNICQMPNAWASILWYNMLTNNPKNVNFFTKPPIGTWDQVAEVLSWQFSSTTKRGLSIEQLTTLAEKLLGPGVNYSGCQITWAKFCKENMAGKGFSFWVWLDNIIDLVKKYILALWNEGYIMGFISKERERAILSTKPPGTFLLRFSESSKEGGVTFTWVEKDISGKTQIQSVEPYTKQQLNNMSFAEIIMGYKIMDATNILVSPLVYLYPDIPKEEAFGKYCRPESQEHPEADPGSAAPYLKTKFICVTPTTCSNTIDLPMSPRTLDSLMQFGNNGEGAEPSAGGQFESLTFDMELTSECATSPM

Regarding `CC(C)(C)C(=O)OCOP(=O)(OCOC(=O)C(C)(C)C)C(F)(F)c1ccc2sc(C(=O)N[C@H]3C[C@@H]4C[C@@H]4C[C@H]4CC[C@@H](C(=O)N[C@@H]5CCN(c6cccnc6)C5)N4C3=O)cc2c1` [Compound 212, (((difluoro(2-(((3S,6S,7aS, 8aR,9aR)-5-oxo-3-(((R)-1-(pyridin-3-yl)pyrrolidin-3-yl)carbamoyl)decahydro-1H-cyclopropa[d]pyrrolo[1,2-a]azocin-6-yl)carbamoyl)benzo[b]thiophen-5-yl)methyl)phosphoryl)bis(oxy)) bis(methylene) bis(2,2-dimethyl-propanoate)], the results for the IC50 in experiment [1] and in experiment [2] were below 100 nM and above 3000 nM, respectively.

Turning to `CC(C)(C)C(=O)OCOP(=O)(OCOC(=O)C(C)(C)C)C(F)(F)c1ccc2sc(C(=O)N[C@H]3C[C@H]4C[C@H]4C[C@H]4CC[C@@H](C(=O)N[C@@H]5CCN(c6cccnc6)C5)N4C3=O)cc2c1` [Compound 213, (((difluoro(2-(((3S,6S,7aR, 8aS,9aR)-5-oxo-3-(((R)-1-(pyridin-3-yl)pyrrolidin-3-yl)carbamoyl)decahydro-1H-cyclopropa[d]pyrrolo[1,2-a]azocin-6-yl)carbamoyl)benzo[b]thiophen-5-yl)methyl)phosphoryl)bis(oxy)) bis(methylene) bis(2,2-dimethyl-propanoate)], the values for the IC50 in experiment [1] and in experiment [2] were 100 to 1000 nM and above 3000 nM, respectively.

In the case of `CC(C)(C)C(=O)OCOP(=O)(OCOC(=O)C(C)(C)C)C(F)(F)c1ccc2sc(C(=O)N[C@H]3C[C@H]4C[C@H]4C[C@H]4CC[C@@H](C(=O)N5CC(n6ccnc6)C5)N4C3=O)cc2c1` [Compound 214, ((((2-(((3S,6S,7aR, 8aS,9aR)-3-(3-(1H-imidazol-1-yl)azetidine-1-carbonyl)-5-oxodecahydro-1H-cyclopropa[d]pyrrolo[1,2-a]azocin-6-yl)carbamoyl)benzo[b]thiophen-5-yl)difluoromethyl)phosphoryl)bis(oxy)) bis(methylene) bis(2,2-dimethyl-propanoate)], the values for the IC50 in experiment [1] and in experiment [2] were below 100 nM and above 3000 nM, respectively.

Take `CC(C)(C)C(=O)OCOP(=O)(OCOC(=O)C(C)(C)C)C(F)(F)c1ccc2sc(C(=O)N[C@H]3C[C@H]4C[C@H]4C[C@H]4CC[C@@H](C(=O)NC5CN(C(=O)CCC(F)(F)F)C5)N4C3=O)cc2c1` [Compound 215, (((difluoro(2-(((3S,6S,7aR, 8aS,9aR)-5-oxo-3-((1-(4,4,4-trifluoro-butanoyl)azetidin-3-yl)carbamoyl)decahydro-1H-cyclopropa[d]pyrrolo[1,2-a]azocin-6-yl)carbamoyl)benzo[b]thiophen-5-yl)methyl)phosphoryl)bis(oxy)) bis(methylene) bis(2,2-dimethyl-propanoate)]: the IC50 in experiment [1] was below 100 nM; in experiment [2], 100 to 1000 nM.

As to `CC(C)(C)C(=O)SCCOP(=O)(OCCSC(=O)C(C)(C)C)C(F)(F)c1ccc2sc(C(=O)N[C@H]3C[C@H]4C[C@H]4C[C@H]4CC[C@@H](C(=O)N5CC(c6ccccn6)C5)N4C3=O)cc2c1` [Compound 218, S,S′-((((difluoro(2-(((3S,6S,7aR, 8aS,9aR)-5-oxo-3-(3-(pyridin-2-yl)azetidine-1-carbonyl)decahydro-1H-cyclopropa[d]pyrrolo[1,2-a]azocin-6-yl)carbamoyl)benzo [b]thiophen-5-yl)methyl)phosphoryl)bis(oxy))bis(ethane-2,1-diyl)) bis(2,2-dimethyl-propanethioate)], the figures for the IC50 in experiment [1] and in experiment [2] were below 100 nM and above 3000 nM, respectively.

On to `CC(C)(C)C(=O)SCCOP(=O)(OCCSC(=O)C(C)(C)C)C(F)(F)c1ccc2sc(C(=O)N[C@H]3C[C@H]4C[C@H]4C[C@H]4CC[C@@H](C(=O)N5CC(c6c[nH]cn6)C5)N4C3=O)cc2c1` [Compound 219, S,S′-(((((2-(((3S,6S,7aR, 8aS,9aR)-3-(3-(1H-imidazol-4-yl)azetidine-1-carbonyl)-5-oxodecahydro-1H-cyclopropa[d]pyrrolo[1,2-a]azocin-6-yl)carbamoyl)benzo[b]thiophen-5-yl)difluoromethyl)phosphoryl)bis(oxy))bis(ethane-2,1-diyl)) bis(2,2-dimethyl-propanethioate)], for which the IC50 in experiment [1] is below 100 nM; in experiment [2] it was 100 to 1000 nM.

In the case of `CC(C)(C)C(=O)SCCOP(=O)(OCCSC(=O)C(C)(C)C)C(F)(F)c1ccc2sc(C(=O)N[C@H]3C[C@H]4C[C@H]4C[C@H]4CC[C@@H](C(=O)N5CCN(C6CCOCC6)CC5)N4C3=O)cc2c1` [Compound 220, S,S′-((((difluoro(2-(((3S,6S,7aR, 8aS,9aR)-5-oxo-3-(4-(tetrahydro-2H-pyran-4-yl)piperazine-1-carbonyl)decahydro-1H-cyclopropa[d]pyrrolo[1,2-a]azocin-6-yl)carbamoyl)benzo[b]thiophen-5-yl)methyl)phosphoryl)bis(oxy))bis(ethane-2,1-diyl)) bis(2,2-dimethyl-propanethioate)], the IC50 in experiment [1] was below 100 nM; in experiment [2], above 3000 nM.

For `CC(C)CC(=O)SCCOP(=O)(OCCSC(=O)CC(C)C)C(F)(F)c1ccc2sc(C(=O)N[C@H]3C[C@H]4C[C@H]4C[C@H]4CC[C@@H](C(=O)N5CC(c6cncnc6)C5)N4C3=O)cc2c1` [Compound 222, S,S′-((((difluoro(2-(((3S,6S,7aR, 8aS,9aR)-5-oxo-3-(3-(pyrimidin-5-yl)azetidine-1-carbonyl)decahydro-1H-cyclopropa[d]pyrrolo[1,2-a]azocin-6-yl)carbamoyl)benzo[b]thiophen-5-yl)methyl)phosphoryl)bis(oxy))bis(ethane-2,1-diyl)) bis(3-methylbutane thioate)], the IC50 in experiment [1] was below 100 nM; in experiment [2] it was above 3000 nM.

For `CC(C)(C)C(=O)SCCOP(=O)(Cc1ccc2sc(C(=O)N[C@H]3C[C@H]4C[C@H]4C[C@H]4CC[C@@H](C(=O)N5CC(c6cccnc6)C5)N4C3=O)cc2c1)OCCSC(=O)C(C)(C)C` [Compound 223, S,S′-(((((2-(((3S,6S,7aR, 8aS,9aR)-5-oxo-3-(3-(pyridin-3-yl)azetidine-1-carbonyl)decahydro-1H-cyclopropa[d]pyrrolo[1,2-a]azocin-6-yl)carbamoyl)benzo[b]thiophen-5-yl)methyl)phosphoryl)bis(oxy))bis(ethane-2,1-diyl)) bis(2,2-dimethyl-propanethioate)], the IC50 in experiment [1] was 100 to 1000 nM; in experiment [2] it was above 3000 nM.

Consider `CC(C)CC(=O)SCCOP(=O)(OCCSC(=O)CC(C)C)C(F)(F)c1ccc2sc(C(=O)N[C@H]3C[C@H]4C[C@H]4C[C@H]4CC[C@@H](C(=O)N[C@@H]5CCN(c6cccnc6)C5)N4C3=O)cc2c1` [Compound 224, S,S′-((((difluoro(2-(((3S,6S,7aR, 8aS,9aR)-5-oxo-3-(((R)-1-(pyridin-3-yl)pyrrolidin-3-yl)carbamoyl)decahydro-1H-cyclopropa[d]pyrrolo[1,2-a]azocin-6-yl)carbamoyl)benzo[b]thiophen-5-yl)methyl)phosphoryl)bis(oxy))bis(ethane-2,1-diyl)) bis(3-methylbutane thioate)], for which the IC50 in experiment [1] is below 100 nM; in experiment [2], above 3000 nM.

For the origin of these results see patent US20250215030A1, “STAT MODULATORS AND USES THEREOF” (Recludix Pharma, Inc., priority 2022, published 2025).
